Measured values: patent US20260240826A1, “COMPOSITIONS FOR PD-L1 INHIBITION AND METHODS OF USE THEREOF” (ARIZONA BOARD OF REGENTS ON BEHALF OF THE UNIVERSITY OF …, priority 2023, published 2026)
Entries after “also recorded” stand apart in the source; their conditions may differ.

Experiments:
[1] = tested on: PD-L1; experiment: SSL-induced PD-L1 expression in HaCaT keratinocytes (mRNA, immunoblot); assay type: cell-based, human; conditions: 24 hr after SSL
Method: Human HaCaT immortalized keratinocytes were maintained in DMEM with 10% FBS and 1× penicillin/streptomycin. Cells were authenticated using STR profiling and tested for mycoplasma regularly. Cells were seeded onto […] at a density of ~200 k/dish and grown for 3 days. Prior to treatment, cells were serum starved overnight to enhance the UV responsiveness of signaling. Cells were ~80% confluent at the time of treatment. BMS-202 (10 μM) in DMSO was added to the media 1 hr prior to SSL (pretreatment).
(§1) For SSL treatment, UVA-340 bulbs (Q-Lab Corporation) were used. Before exposure, cells were washed with 1×PBS and then incubated in 4 mL PBS (with 0.01% MgCl2 and 0.01% CaCl2) during irradiation. Cells were exposed to 40 kJ/m2 UVA/2.68 kJ/m2 UVB, then rinsed once more with PBS prior to being placed back into DMEM with 1% FBS+penicillin/streptomycin and vehicle or BMS-202 (post-treatment) and incubated until harvest 24 hr later. Control cells underwent identical processing, except were held in the biosafety cabinet without UV exposure.
(§2) Cells were lysed in RIPA containing 1×HALT protease+phosphatase inhibitor cocktail (ThermoFisher Scientific) and 100 mM PMSF and protein concentrations were assessed using BCA assay (Bio-Rad). Mouse epidermal protein lysates for immunoblot analysis were derived from scraped frozen SKH-1 skins as described previously (Blohm-Mangone et al., 2018). […]

[2] = tested on: cleaved caspase-3; experiment: cleaved caspase-3 immunohistochemistry of SKH-1 mouse skin; assay type: in vivo; conditions: BMS-202+SSL, 24 hr; vehicle+SSL over 60%
Method: (§3) UVB exposure was performed on AP-1 luciferase reporter mice on the SKH-1 genetic background at a dose of 2.75 kJ/m2 using FS40 bulbs (Q-Lab Corporation) as described before with the modification that mice were imaged 24 hr post UVB exposure using whole body bioluminescence instead of 48 hr post UVB using ear punches. SSL irradiation of SKH-1 mice (Charles River Laboratories, strain code 477) at a dose of 90 kJ/m2 UVA/6 kJ/m2 UVB was performed using UVA-340 bulbs (Q-Lab Corporation) as described before.
Caspase-3: Briefly, deparaffinized mouse skin slides were subjected to antigen retrieval using a Decloaking chamber in Rodent Decloaker HIER solution (both from Biocare, 115° C. 30 seconds, then 90° C. 10 seconds) followed by blocking with first 3% hydrogen peroxide (10 minutes) and then 5% normal goat serum in PBST (1 hour). Slides were then incubated in a 1:300 dilution of anti-cleaved caspase-3 antibody (#9661, Cell Signal Technology) at 4° C. overnight. […] For quantification, the average count (caspase 3-positive per total epidermal cells) in four fields/slide (20× field) was determined for each mouse skin specimen and calculated per group (n=3).
Mouse IHC data were analyzed using Kruskal-Wallis non-parametric data analysis (GraphPad Prism 10.0 software). […]

[3] = tested on: PD-L1; experiment: SSL-induced PD-L1 protein in primary epidermal keratinocytes (HEK), immunoblot; assay type: cell-based; conditions: human primary keratinocytes (HEK cells)
Method: as §1
Adult human epithelial keratinocytes (HEKs) were purchased from Thermo Scientific and maintained in EpiLife media on collagen-coated plates as per the vendor's instructions. Cells were treated with BMS-202 and SSL as described for HaCaT cells.
as §2, with “2018). Twenty μg of protein/lane were loaded onto 10% gels for electrophoresis/immunoblotting using established protocols.” for “2018).”

[4] = cited from earlier work
[5] = tested on: PD-L1; experiment: SSL-induced PD-L1 protein in SKH-1 mouse epidermis, immunoblot; assay type: in vivo; conditions: topical 8 mM; 24 hr post SSL
Method: as §3
Cells were lysed in RIPA containing 1×HALT protease+phosphatase inhibitor cocktail (ThermoFisher Scientific) and 100 mM PMSF and protein concentrations were assessed using BCA assay (Bio-Rad). Mouse epidermal protein lysates for immunoblot analysis were derived from scraped frozen SKH-1 skins as described previously (Blohm-Mangone et al., 2018). Twenty μg of protein/lane were loaded onto 10% gels for electrophoresis/immunoblotting using established protocols. Human cell lysate blots were probed with Cell Signaling PD-L1 antibody #13684, and mouse epidermal lysate blots were probed with Invitrogen PD-L1 antibody #PA5-20343. Beta-actin (Cell Signaling #4970) was used as a loading control. An anti-rabbit secondary antibody (Cell Signaling #7074) was used for all blots using standard chemiluminescent protocols (Thermo Scientific Pico ECL #34577). […]

[6] = tested on: AP-1 luciferase reporter HaCaT cells; experiment: AP-1 reporter luciferase assay in HaCaT keratinocytes; assay type: cell-based, human; conditions: harvest 12 hr after UVB
Method: HaCaT cells stably transfected with the TRE-driven luciferase plasmid (“AP-1 luciferase” cells) were seeded in 6-well plates, grown to 70% confluence and serum starved overnight to reduce background signaling. Cells were pretreated with BMS-202 or vehicle (DMSO) for 1 hr, then washed twice with PBS prior to exposure to […]. Cells were then washed once more with PBS before being placed into fresh starvation media with vehicle or BMS-202 until harvest 12 hr later. Cells were lysed in Promega's Cell Culture Lysis Buffer (1×), and a total of 10 μg protein per sample replicate was assayed for luciferase activity according to the manufacturer's instructions for the Luciferase Assay System (Promega) using a TD 20/20 luminometer (Turner Designs). Experimental triplicates were averaged and the means from each independent experiment were analyzed by Student's t-test for statistical significance. Results are representative of three independent experiments.

[7] = cited from earlier work; remark: listed apart in the source
[8] = tested on: AP-1 luciferase SKH-1 reporter mice; experiment: AP-1 SKH-1 reporter mouse bioluminescence; assay type: in vivo; conditions: topical 8 mM; imaged 24 hr after UVB
Method: as §3
Male transgenic SKH-1 mice heterozygous for the TPA-Response Element (TRE)-driven luciferase transgene (“AP-1 luciferase” mice, n=3) were treated topically on their backs with 200 μL of 8 mM BMS-202 or vehicle control (acetone). For all mice receiving BMS-202, the compound was applied twice before (24 hr and 1 hr) as well as immediately after UV exposure, a dose regimen ensuring efficient target modulation, similar to topical non-sunscreen photoprotection approaches. Mice were injected i.p. with luciferin (potassium salt) stock solution in PBS without magnesium or calcium at a dose of <150 mg/kg of body weight 24 hr after UV exposure and imaged (Lago instrument, Spectral Instruments Imaging) with Aura software analysis.

[9] = screening based on physicochemical properties (Log P, UVA/UVB absorbance); conditions: data not shown

For `COc1nc(OCc2cccc(-c3ccccc3)c2C)ccc1CNCCNC(C)=O` [BMS-202], the “SSL-induced PD-L1 mRNA expression” value [1] was “blocked; also recorded: suppressed dose-dependently”, the “SSL-induced PD-L1 protein expression (immunoblot)” value [1] was “blocked” and the “percentage of epidermal cells staining positive for cleaved caspase-3” value [2] was “approximately 10%”. For the same molecule, the “SSL-induced PD-L1 protein upregulation (immunoblot)” value [3] was “reproducible”, the “systemic availability upon topical application” value [4] was “minimal systemic availability” and the “UV-induced PD-L1 upregulation at the protein level (immunoblot)” value [5] was “significantly antagonized”. The “antagonistic effect on PD-L1 protein, pre- and post-UV application versus pre only” value [5] was “more pronounced”, the “UVB-induced AP-1 luciferase signal intensity” value [6] was “significant inhibition” and the “Log P” value [7] was 3.6. The “attenuation in bioluminescent signal intensity (UV-induced AP-1 stress response)” value [8] was ~5 fold and the UVA/UVB absorbance [9] was “absence of UVA/UVB absorbance”.
